Measured values as given in patent US7585850B2 (Adenobio N.V., priority 2005, dated 2009).

Experiments:
normotensive Wistar rats [1] = assay: Effect of oral and IV 330A1 on blood pressure of normotensive Wistar rats; format: in vivo, rat
Method: (§1) The experiment was performed in 10 male Wistar rats (340 to 410 g; 5 in the treated group and 5 in the control group). Animals were maintained for two weeks of adaptation in humidity and temperature controlled room and were fed a standard diet (U.A.R, Villemoisson, France). Each animal, (control or treated) was anaesthetized with sodium pentobarbital (6%, 0.9 ml/Kg body weight). The left carotid artery was cannulated with a PE50 polyethylene catheter connected to a pressure transducer (MacLabs, ADInstruments, Hastings, UK). Blood pressure was monitored continuously and recorded. Adb011 was administered orally by gavage at the dose of 50 mg/kg (in Arabic syrup 5%).
(§2) The experiment is similar to example 3.
• 330A1-I (n=4): receiving by gavage the product (50 mg/kg in suspension with Arabic syrup 30 mg/ml) • Control-(n=4)I: receiving by gavage Arabic syrup 30 mg/ml alone • 330A1-II: receiving the product IV (10 mg/kg in suspension with distilled water 30 mg/ml) • Control-II (n=4): receiving IV distilled water

[2] = in vivo; cited from earlier work
normotensive Wistar rats [3] = assay: Effect of oral Adb111 (AMP complex) on blood pressure of normotensive Wistar rats and comparison with AMP; format: in vivo, rat
Method: as §1, with “Adb011 was administered orally by gavage at the dose of 50 mg/kg (in Arabic syrup 5%).” left out
as §2

hypoxic rats = assay: Effect of oral Adb011 on chronic pulmonary hypertension caused by hypoxia in rats; format: in vivo, rat
Method: Animals were divided in three groups: • Adb-011 chronic treatment (n=5): receiving by gavage Adb-011 (50 mg/kg in suspension with Arabic syrup, 20 mg/ml) twice a day (morning and evening) for 14 days. • Control (n=6): receiving by gavage vehicle (suspension of Arabic syrup 20 mg/kg). • Adb-011 acute treatment (n=6): receiving by gavage vehicle for 14 days and orally treated with a single dose of Adb-011 on the last day (day of surgery). Rats were placed in a chamber where air was circulated at a pressure of 380 Torr, which corresponds to an altitude of 5500 meters. The chamber was open twice a day for ˜30 minutes to treat animals and to replace food and water. On the day of surgery the animals were removed from the chamber and anesthetized with pentobarbital sodium (60 mg/kg ip). A polyethylene catheter (PE-50) was placed in the aortic arch via the left carotid artery. An introducer was advanced in the right ventricle via the right jugular vein. Adequate placement of both catheters was established by the pressure waveform. Both catheters were connected to a pressure transducer (Biopac MP30, BIOPAC Systems, Inc.). The time-lag between last dose of Adb-011 (in group 1) and blood pressure measurement was 14 hours.

normotensive Wistar rats [4] = assay: Effect of oral administration of Adb011 on blood pressure of normotensive Wistar rats; format: in vivo, rat
Method: as §1
Results are reported as mean±SEM of n experiments. Multiple measurement analysis was performed using ANOVA, followed by Bonferroni-Dunn test. Statistical significance was accepted for p values less than 0.05.
Blood pressure began to decrease after 30 minutes of Adb-011 administration. It reached a significant maximal decrease of −13.9 mmHg between 70 and 100 min. (with respect to vehicle values, p<0.05 ANOVA multiple measurement analysis followed by a Bonferroni-Dunn test) and returned to normal after 110-120 minutes.

rats = assay: Effects of Adb011 by the IV route on systemic arterial pressure in rats; format: in vivo, rat; conditions: 10 mg/kg IV bolus
Method: as §1, §2
• Adb-011 (n=4): receiving IV a bolus of Adb-011 (10 mg/kg in suspension with distilled water 30 mg/ml) • Control (n=3): receiving IV (distilled water)
In the treated group, blood pressure began to decrease after 15 min of the Adb011 administration and reached a significant maximal decrease of 48 mmHg at […].

[5] = in vivo; cited from earlier work; remark: listed apart in the source
[6] = oral administration, conclusion over doses
[7] = 50 mg/kg p.o. twice a day for 14 days, chronic hypoxia
[8] = HxC + A 15 min: single oral dose on day of surgery
[9] = HxC + A 60 min: single oral dose on day of surgery, 60 min

CC(=O)Nc1ccc(C(=O)O)cc1.CC(O)CN(C)C [330A1]
effect on mean arterial blood pressure (normotensive Wistar rats [1]; 10 mg/kg IV): minor effect | effect on mean arterial blood pressure (normotensive Wistar rats [1]; 50 mg/kg by gavage): minor effect

Nc1ncnc2c1ncn2[C@@H]1O[C@H](COP(=O)(O)O)[C@@H](O)[C@H]1O [AMP, adenosine monophosphate, reference compound]
gastrointestinal bioavailability [2]: poor | time after administration at which blood pressure began to decrease (normotensive Wistar rats [3]; 100 mg/kg by gavage): 45 min | time after which blood pressure returned to normal values (normotensive Wistar rats [3]; 100 mg/kg by gavage): 120 min | time after administration at which blood pressure began to decrease (normotensive Wistar rats [3]; 300 mg/kg by gavage): 45 min | time after which blood pressure returned to normal values (normotensive Wistar rats [3]; 300 mg/kg by gavage): 120 min | time for which blood pressure was lowered (normotensive Wistar rats [3]; [6]): 60 min

CC(=O)Nc1ccc(C(=O)O)cc1.CC(=O)Nc1ccc(C(=O)O)cc1.CC(=O)Nc1ccc(C(=O)O)cc1.CC(O)CN(C)C.CC(O)CN(C)C.CC(O)CN(C)C.Nc1ncnc2c1ncn2[C@@H]1O[C@H](CO)[C@@H](O)[C@H]1O [Adb011]
change of right ventricular hypertrophy (hypoxic rats; [7]): -75 mg | decrease of pulmonary hypertension (hypoxic rats; [7]): 21.5 mmHg | effect on systemic pressure (hypoxic rats; [7]): no effect | RVp (right ventricular pressure) (hypoxic rats; HxA: chronic treatment 50 mg/kg p.o. twice a day 14 days, measured 14 h after last dose): 53.30 ± 461 mmHg | (LV + S)w (left ventricular + septum weight) (hypoxic rats; HxA: chronic treatment 14 days): 729 ± 56 | C(a − v)O2 (arterial − venous O2 difference) (hypoxic rats; HxA: chronic treatment 14 days): 8.0 ± 0.4 mL O2/dL blood | CaO2 (arterial O2 content) (hypoxic rats; HxA: chronic treatment 14 days): 29.2 ± 0.9 mL O2/dL of blood | Cardiac output (hypoxic rats; HxA: chronic treatment 14 days): 162 ± 8 mL/min/kg | CvO2 (venous O2 content) (hypoxic rats; HxA: chronic treatment 14 days): 21.2 ± 1.0 mL O2/dL of blood | HR (heart rate) (hypoxic rats; HxA: chronic treatment 14 days): 364 ± 15 beat/min | MABP (mean arterial blood pressure) (hypoxic rats; HxA: chronic treatment 14 days): 113 ± 2 mmHg | RVw (right ventricular weight) (hypoxic rats; HxA: chronic treatment 14 days): 362 ± 10 mg | SV (stroke volume) (hypoxic rats; HxA: chronic treatment 14 days): 0.45 ± 0.02 mL/kg | SVR (systemic vascular resistance) (hypoxic rats; HxA: chronic treatment 14 days): 0.70 ± 0.03 | SaO2 (arterial oxygen saturation) (hypoxic rats; HxA: chronic treatment 14 days): 92 ± 1 % | VO2 (oxygen consumption) (hypoxic rats; HxA: chronic treatment 14 days): 12.81 ± 0.29 mL/min/kg | (LV + S)w (left ventricular + septum weight) (hypoxic rats; [8]): 675 ± 21 | C(a − v)O2 (arterial − venous O2 difference) (hypoxic rats; [8]): 8.3 ± 0.5 mL O2/dL blood | CaO2 (arterial O2 content) (hypoxic rats; [8]): 27.3 ± 1.4 mL O2/dL of blood | Cardiac output (hypoxic rats; [8]): 164 ± 11 mL/min/kg | CvO2 (venous O2 content) (hypoxic rats; [8]): 19.0 ± 1.5 mL O2/dL of blood | HR (heart rate) (hypoxic rats; [8]): 352 ± 12 beat/min | MABP (mean arterial blood pressure) (hypoxic rats; [8]): 107 ± 5 mmHg | RVw (right ventricular weight) (hypoxic rats; [8]): 436 ± 21 mg | SV (stroke volume) (hypoxic rats; [8]): 0.47 ± 0.03 mL/kg | SVR (systemic vascular resistance) (hypoxic rats; [8]): 0.68 ± 0.06 | SaO2 (arterial oxygen saturation) (hypoxic rats; [8]): 82 ± 4% | VO2 (oxygen consumption) (hypoxic rats; [8]): 13.38 ± 0.61 mL/min/kg | RVp (right ventricular pressure) (hypoxic rats; HxC + A 15 min: single oral dose on day of surgery, 15 min): 75.17 ± 0.95 mmHg | HR (heart rate) (hypoxic rats; [9]): 329 ± 4 beat/min | MABP (mean arterial blood pressure) (hypoxic rats; [9]): 92 ± 5 mmHg | RVp (right ventricular pressure) (hypoxic rats; [9]): 52.83 ± 3.83 mmHg | reduction of pulmonary artery pressure (hypoxic rats; acute single oral dose, rats with fixed pulmonary hypertension): −22 mmHg | time after which blood pressure returned to normal (normotensive Wistar rats [4]; 50 mg/kg p.o.): 110 to 120 min | time after administration at which blood pressure began to decrease (normotensive Wistar rats [4]; 50 mg/kg p.o. by gavage, anaesthetized rats): 30 min | maximal decrease of blood pressure (normotensive Wistar rats [4]; 50 mg/kg p.o., with respect to vehicle values, p<0.05): −13.9 mmHg | maximal decrease of blood pressure (rats): 48 mmHg | mean arterial blood pressure two hours after injection (rats): still very low two hours after injection | time after administration at which blood pressure began to decrease (rats): 15 min | time of maximal decrease of blood pressure (rats): 15 min

CC(=O)Nc1ccc(C(=O)O)cc1.CC(=O)Nc1ccc(C(=O)O)cc1.CC(=O)Nc1ccc(C(=O)O)cc1.CC(O)CN(C)C.CC(O)CN(C)C.CC(O)CN(C)C.Nc1ncnc2c1ncn2[C@@H]1O[C@H](COP(=O)(O)O)[C@@H](O)[C@H]1O [Adb111]
time after administration at which blood pressure began to decrease (normotensive Wistar rats [3]; 100 mg/kg by gavage): 45 min | time after which blood pressure returned to normal values (normotensive Wistar rats [3]; 100 mg/kg by gavage): 180 min | time after administration at which blood pressure began to decrease (normotensive Wistar rats [3]; 300 mg/kg by gavage): 45 min | time after which blood pressure returned to normal values (normotensive Wistar rats [3]; 300 mg/kg by gavage): 180 min | time after oral administration at which blood pressure lowering began (normotensive Wistar rats [3]; [6]): 45 min | time for which blood pressure was lowered (normotensive Wistar rats [3]; [6]): up to 165 min | bioavailability and efficacy compared with natural AMP (normotensive Wistar rats [3]; oral, comparable doses): better bioavailabity and efficacy over natural AMP

Nc1ncnc2c1ncn2[C@@H]1O[C@H](CO)[C@@H](O)[C@H]1O [adenosine]
plasma half-life [5]: less than 5 seconds
